Results taken from patent publication US12590118B2, “Salt and crystal form of steroid derivative regulator” (Shanghai Hansoh Biomedical Co., Ltd., priority 2019, dated 2026).

Legend:
GABA-A receptor = test: 35S-TBPS binding assay (GABAA receptor binding ability assay); design: species or system Sprague-Dawley rat; settings: rat cerebral cortex cell membrane, 5 μM GABA, 2 nM 35S-TBPS; read-out: IC50 on inhibiting the TBPS binding activity, 35S-TBPS bindng assay
How it was run: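 Male Sprague-Dawley rat cerebral cortex membranes in PBS, preincubated with compound (1% DMSO, 8-point 3-fold series) 5 min at 25° C, then GABA 5 μM final 5 min, then 2 nM 35S-TBPS for 20 h at 4° C. Bound radioactivity filtered on PEI-treated GF/C and counted. % inhibition relative to DMSO and 10 μM P026-2 controls; IC50 from 4-parameter fit.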

ICR mice = test: Forced swimming model in mice; type: in vivo; settings: dose 5 mpk p.o.
Experimental: The antidepressant effect of the compound was evaluated by the forced swimming model in mice.
Compounds of Examples 1 to 3, Example 9, Example 40, Example 41, Examples 48 to 52, Example 90 and Example 98 of the present invention, prepared by the applicant.
Male ICR mice (25-35 g) were adapted in the experiment environment for 3 days before the forced swimming test.
According to the experiment design, the mice were randomly grouped on the day before the experiment according to body weight, with 12 mice in each group. Before the test, the compounds of each example were administered intragastrically according to the Tmax thereof in the brain in mice pharmacokinetic experiment.
Respectively: • 1) Model group (0.5% CMC-Na-1% Tween 80 solution, p.o., 10 mL/kg); • 2) Compounds of Examples 1 to 3, Example 40, Example 41, Examples 48 to 51, Example 90 and Example 98 (10 mg/kg, p.o., 10 mL/kg); Example 9 and Example 52 (5 mg/kg, p.o., 5 mL/kg).
When being administered, the compounds of each example were suspended in 0.5% CMC-Na+1% Tween 80 solution to the desired concentration.
0.5-1 hour after administration, ICR mice were placed in a forced swimming device (transparent glass drum (water depth 18 cm, water temperature 25-26° C.), one mouse per tank) and forced to swim for 6 minutes. The forced swimming device recorded the floating time of the ICR mice during the entire 6 minutes, and the data of the latter four minutes were used for data analysis. The mice were taken out immediately after the swimming experiment, wiped dry and put back in their original cages.
Note: The criterion for determining the immobility time is that the mouse stops struggling in water and floats, and there are only slight limb movements to keep the head floating on the water.
3.4 Data Analysis Floating time percentage=100*floating time/240 s.

[1] = target: T1, human GABAA receptor α1, β2 and γ2 subunit (HEK293T cell line) (Homo sapiens, UniProt P14867+P47870); test: Positive regulatory effect on GABAA receptor, manual patch clamp; type: cell-based; settings: whole-cell current, 1 μM GABA
T1 construct: expressed in transfected cells
Experimental: The objective of this test example is to determine the positive regulatory effect of the compound on GABAA receptor by the electrophysiological manual patch clamp method.
Manual patch clamp system HEKA EPC10 USB signal amplifier and digital conversion system (purchased from HEKA Electronics, Germany), centrifuge (Eppendorf, etc.), carbon dioxide incubator (purchased from Thermo, etc.), biological safety cabinet (Thermo, etc.), pipette (purchased from Eppendorf, etc.).
The cells were grown in a culture dish with DMEM medium (purchased from Invitrogen), and cultured in an incubator at 37° C. and 5% CO2. Before the electrophysiological experiment, the cells were transferred to a round glass slide placed in the culture dish, and grown in the same culture medium and under the same culture condition as above. The density of cells on each round glass slide should meet the requirement that most cells were independent and individual.
Each test compound was diluted in gradient with DMSO to obtain a stock solution, which was then diluted with extracellular fluid by 1,000-fold to obtain the final test concentration. The final concentration of DMSO in the compound solution with each concentration was 0.1%. The experiment used the manual patch clamp system HEKA EPC10 USB signal amplifier and digital conversion system for whole cell current recording. The round glass slide with HEK293T GABAA cells grown on the surface was taken out of the culture dish, and placed in the electrophysiological recording tank under the inverted microscope. The recording tank was continuously perfused with extracellular fluid. During the experiment, the whole-cell current recording technology was used to record the chloride current of the GABAA channel. 1 μM GABA was used to activate the chloride current of the GABAA channel of each cell as an initial control. 1 μM GABA acted on the cell through the drug perfusion system to induce the chloride current of the GABAA channel, the action time was about 3 to 5 seconds, and the current value was used as the initial control value. The test concentration of compound was perfused and incubated for 2 to 5 minutes. […] GABA solution (mixed with the test concentration of compound) was given to the cells to observe the enhancement effect of the test compound on the current induced by 1 μM GABA. When the cell state was stable, the test compound acted on the same cell from low to high concentration to record the enhancement effect of the induced current.
The experimental data was analyzed by HEKA Patchmaster, Microsoft Excel and the data analysis software provided by Graphpad Prism.

T1 sequence (P14867 28-456): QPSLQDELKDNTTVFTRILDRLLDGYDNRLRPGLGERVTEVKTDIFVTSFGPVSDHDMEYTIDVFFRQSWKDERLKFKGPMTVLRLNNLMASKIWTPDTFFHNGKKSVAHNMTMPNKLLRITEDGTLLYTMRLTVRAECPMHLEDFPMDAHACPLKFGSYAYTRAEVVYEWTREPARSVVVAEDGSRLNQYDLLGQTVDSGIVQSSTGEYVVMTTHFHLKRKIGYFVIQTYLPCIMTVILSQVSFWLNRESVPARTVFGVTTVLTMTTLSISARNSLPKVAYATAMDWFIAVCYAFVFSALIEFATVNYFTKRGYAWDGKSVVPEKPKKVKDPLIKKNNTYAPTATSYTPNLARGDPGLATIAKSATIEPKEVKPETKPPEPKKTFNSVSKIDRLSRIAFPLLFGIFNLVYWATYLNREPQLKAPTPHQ
T1 sequence (P47870 25-512 limits assumed): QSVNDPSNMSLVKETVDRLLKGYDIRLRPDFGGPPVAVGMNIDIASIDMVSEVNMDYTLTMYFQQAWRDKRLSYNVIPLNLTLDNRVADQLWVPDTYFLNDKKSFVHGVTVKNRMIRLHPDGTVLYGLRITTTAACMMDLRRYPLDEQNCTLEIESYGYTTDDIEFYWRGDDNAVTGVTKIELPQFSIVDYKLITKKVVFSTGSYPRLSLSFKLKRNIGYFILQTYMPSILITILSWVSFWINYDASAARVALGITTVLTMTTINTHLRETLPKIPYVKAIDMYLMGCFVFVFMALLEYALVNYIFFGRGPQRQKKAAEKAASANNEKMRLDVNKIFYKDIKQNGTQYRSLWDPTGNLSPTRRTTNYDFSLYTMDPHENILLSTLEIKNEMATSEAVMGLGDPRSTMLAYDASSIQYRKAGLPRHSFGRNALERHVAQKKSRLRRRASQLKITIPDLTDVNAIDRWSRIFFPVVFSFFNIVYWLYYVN
T1 sequence (P18507 40-475 partner): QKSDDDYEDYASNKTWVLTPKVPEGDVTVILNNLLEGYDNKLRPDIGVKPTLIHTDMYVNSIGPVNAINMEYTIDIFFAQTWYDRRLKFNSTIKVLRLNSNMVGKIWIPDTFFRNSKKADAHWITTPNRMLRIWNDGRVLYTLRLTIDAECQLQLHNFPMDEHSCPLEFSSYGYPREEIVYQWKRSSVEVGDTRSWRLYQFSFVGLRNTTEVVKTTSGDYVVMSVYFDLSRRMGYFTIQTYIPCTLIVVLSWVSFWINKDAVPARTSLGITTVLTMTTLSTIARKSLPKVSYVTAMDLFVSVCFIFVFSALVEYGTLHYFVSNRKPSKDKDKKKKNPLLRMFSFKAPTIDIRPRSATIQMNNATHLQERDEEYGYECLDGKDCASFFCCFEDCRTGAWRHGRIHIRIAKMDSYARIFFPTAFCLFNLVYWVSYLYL

Row | Structure (SMILES) | IC50 (GABA-A receptor) [nM] | Mean (immobility, %) (ICR mice; floating time/240 s) [%] | Mean (immobility, s) (ICR mice; latter four minutes of 6 min swim) [s] | EC50 [1] [nM]
1 | C[C@@H]1C[C@H](C(=O)Cn2cc(C#N)cn2)[C@@]2(C)CC[C@H]3[C@@H](CC[C@@H]4C[C@](C)(O)CC[C@@H]43)[C@H]12 [Example 9, 1-(2-((3R,5R,8R,9R,10S,13S,14S,15R)-3-Hydroxy-3,13,15-trimethylhexadecahydro-1H-cyclopenta[a]phenanthren-17-yl)-2-oxoethyl)-1H-pyrazole-4-carbonitrile] | 4.6 | 57.60 | 138.22 | 60
2 | C[C@@]1(O)CC[C@H]2[C@H](CC[C@@H]3[C@@H]2CC[C@@]2(C)[C@H]3[C@H](C3CC3)C[C@@H]2C(=O)Cn2nc(C#N)cc2C#N)C1 [Example 96, 1-(2-((3R,5R,8R,9R,10S,13S,14S,15S,17S)-15-Cyclopropyl-3-hydroxy-3,13-dimethylhexadecahydro-1H-cyclopenta[a]phenanthren-17-yl)-2-oxoethyl)-1H-pyrazole-3,5-dicarbonitrile] | 28.5 |  |  | 84
